Each structure is given as a SMILES string. Converted amounts (≈) assume the structure as drawn. Where only a bound is given, the exact number is not on record here.

In series [1] the test system is SARS-COV-2 USA_WA1/2020. Conditions: Vero 76 cells.
The next series in a line: in vitro. Particulars: African green monkey.
For series [2], the system named is SARS-COV-2 USA_WA1/2020. The series can be described thus: microbe, parasite or virus in culture. Conditions: Severe acute respiratory syndrome coronavirus 2, Vero 76, read-out: EC50: 50% effective antiviral concentration.
The test system of a further series is SARS-COV-2. Particulars: from Wang M et al., Cell Res. 2020; cited from earlier work.
Setting [3] is: by day 28, p<0.0001, not with SOC alone.

For `C[C@@H]1CC[C@H]2[C@@H](C)C(=O)O[C@@H]3O[C@@]4(C)CC[C@@H]1[C@]32OO4` [Artemisinin], the “SI = CC50/EC50 (Safety Index)” value in the series with SARS-COV-2 USA_WA1/2020 [1] was 140. Also, the Safety profile entry with COVID-19 (80 patients on Artemisinin) is on record as “very favorable safety profile”. Moreover, the WHO severity scale entry in the series on COVID-19 (Day 4 and Day 5, p=0.0045 and p=0.0370) is reported as “significant improvement over SOC”. In addition, the “Recovery of patients with mild-moderate COVID-19 across symptoms (fever, sore throat, dry cough, ache)” value in the series on COVID-19 (added to the SOC) is recorded as “accelerated the recovery”. Besides, the “Decline in body temperature in comparison to SOC arm” value with COVID-19 (by day 2) was “faster and higher”. In the series on COVID-19 (by day 5), the “Improvement in respiratory rate in comparison to SOC arm” value is “faster and higher”. The “Improvement in mean SpO2 level in comparison to SOC arm” value in the series on COVID-19 (by day 28 (end of study), p=0.029) is listed as “significantly higher”. In addition, in the series on COVID-19 (setting [3]), the O2 sat result is listed as “fully recovered” and the respiratory rate entry is given as “fully recovered”. In the series with COVID-19 (human, in vivo), the “Artemisinin-related adverse events (the only ones)” value was “transient mild rash and mild hypertension”; the “Changes in biochemistry or hematology parameters” value was “no clinically significant changes”; the Efficacy in words result was “effective in treating subjects with mild and moderate COVID-19”; the Safety and tolerability result is “safe and well-tolerated”. Further, the “Reduction of WHO score on the first few doses” value in the series on COVID-19 (p=0.0043, n=56 PulmoHeal+SOC vs n=25 SOC) is reported as “Almost all of WHO-4 patients achieved a reduction WHO-3”. In addition, the “Long term lung functions (FIG. 4)” value in the series with COVID-19 (patients with confirmed SARS-CoV-2 infection) is given as “restored long term lung functions”. In “in vitro”, the CC50 is 61 µg/mL (≈ 216 µM). The EC50 in the series with SARS-COV-2 USA_WA1/2020 [2] came to 0.45 µg/mL (≈ 1.59 µM).

As for `CCC(CC)COC(=O)[C@H](C)N[P@](=O)(OC[C@H]1O[C@@](C#N)(c2ccc3c(N)ncnn23)[C@H](O)[C@@H]1O)Oc1ccccc1` [Remdesivir], the CC50 in the series with SARS-COV-2 was greater than 100 µM.

(Values after patent US20240093198A1, “TGF-BETA THERAPEUTICS FOR AGE DISEASE” (GMP BIOTECHNOLOGY LIMITED, priority 2021, published 2024).)
